# Reference: patent US20120189579A1 (priority 2009, published 2012)
# pEC50: −log10 of the molar value. Where a name gives a salt, the structure may show the parent alone.
# Molecular target: T1, HCV NS5BΔ21/Gal4-DBD fusion protein (Hepatitis C virus genotype 1b, UniProt Q9WMX2)
# T1 construct: The protein was expressed with a 21 amino acid C-terminal deletion to remove transmembrane domain; expressed in transfected cells; host or cells: Huh-7 (transient transfection)
# Test: 3D-SCREEN assay (NS5B reporter gene assay in Huh-7 cells)
# Assay type: cell-based, HCV genotype 1b
# Method: Human Hepatoma Huh-7 cell line was maintained in DMEM/HAMF-12 supplemented with 10% SVF, 4 mM glutamine, […] Na pyruvate, 1% penistreptomycine. HCV replicon containing Huh-7 cell lines Huh-9.13 and Luc Neo ET (Reblikon) were maintained in DMEM supplemented with 10% SVF, 2 mM glutamine, and 1×NEAA, 100 U/ml penicillin, and 100 μg/ml streptomycine. Replicon cells were maintained in medium supplemented with 1 mg/ml G418 for replicon Huh-9.13 and 0.5 mg/ml for Luc Neo et replicon unless indicated otherwise. Huh-7 and HCV replicon cell lines were maintained at 37° C. and 5% CO2 in a humidified atmosphere. Cells were dissociated at sub confluence with trypsin EDTA 1×.
# cDNA encoding HCV NS5B genotype 1b, was cloned in frame with Gal4-DNA Binding Domain. The protein was expressed with a 21 amino acid C-terminal deletion to remove transmembrane domain. Expression of NS5BΔ21/Gal4 DBD fusion protein was under control of SV40 early promoter. 3D-Sensor peptide was cloned in frame with VP16 activation domain. Expression of 3D-Sensor/VP16 AD fusion protein was under control of CMV promoter. Expression of the firefly luciferase reporter gene was inducible by the [Target protein/conformation sensitive peptide/VP16AD] complex.
# It is a single-target, cell based assay. Briefly, expression of a reporter gene depends on the interaction of a short peptide, thereafter named 3D-Sensor, and native conformation of the target protein. Whenever the conformation of the target protein is modified, interaction between 3D-sensor and target protein is disrupted and reporter gene is not expressed anymore. Conformation modifiers are identified by loss of expression of reporter gene. NS5B 3D-Screen platform was generated in Huh-7 cell lines by transient transfection of three expression vectors encoding respectively • (i) HCV NS5BΔ21/Gal4-DBD fusion protein • (ii) the 3D-sensor peptide 14/VP16 fusion protein • (iii) the firefly luciferase reporter gene
# Huh-7 cells were dissociated the day before transfection and seeded in T175 flasks at a density of 10^7 cells in 30 ml culture medium. Equimolar ratios of vectors were transfected in cell according to optimized jetPEI transfection protocol (PolyPlus Transfection, Illkirch, France) and 10 μg total DNA/10^6 cells. Transfection was performed for 2 hours at 37° C. and 5% CO2 in a humidified atmosphere. After two hours cells were dissociated and seeded in 96 wells plates at a density of 25,000 cells per well and 90 μl culture medium. 10 μl of compounds to be tested were added 2 hours after seeding. Final concentration of DMSO was 1%. Cells were incubated in the presence of compounds for 24 hours after which expression of firefly luciferase reporter gene was quantified. Briefly, culture medium was removed and cells were lysed by addition of 100 μl of lysis buffer containing 125 mM Tris Phosphate ph 7.8, 10 mM EDTA, 5 mM DTT, 50% glycerol and 5% Triton. Plates were vortexed 10 min at 1300 rpm. Cell lysat was transferred in OpaqueWhite Assay 96 well Flat Bottom plates. 100 μl of luciferin solution 1× were added to each well. Luciferin solution contained 40 mM Tris Phosphate ph 7.8, 0.2 mM EDTA, 67 mM DTT, 2.14 mM MgCl2, 5.4 mM MgSO4, 4.7×10^−4 M luciferin, 5.3×10^−4 M ATP and 2.7×10^−4 M Acetyl co enzyme A. Luminescence was immediately measured with Berthold Microlumat Plus LB 96V luminometer with an integration of 0.5 sec. Inhibition was calculated using the formula: % inhibition=(1−(read/average max))*100. Average max=signal in absence of compound
row,SMILES,pEC50
1,"CON=C(C1=C(O)C(=O)N(c2ncc(S(=O)(=O)c3ccc([N+](=O)[O-])cc3)s2)C1c1ccc(C(C)C)cc1)c1ccc(C)cc1 (mixture of isomers) [Example 49, 3-hydroxy-5-(4-isopropyl-phenyl)-4-{[methoxyimino]-p-tolyl-methyl}-1-[5-(4-nitro-benzenesulfonyl)-thiazol-2-yl]-1,5-dihydro-pyrrol-2-one]",5.40
2,COC(=O)c1sc(N2C(=O)C(O)=C(C(=O)c3ccc(Cl)cc3)C2c2ccc(C(C)(C)C)cc2)nc1C (stereo not drawn) [Example 62],4.70
3,"COc1ccc(C(=O)C2=C(O)C(=O)N(c3nncs3)C2c2ccc(C(C)(C)C)cc2)cc1 (stereo not drawn) [Example 18, 5-(4-tert-butyl-phenyl)-3-hydroxy-4-(4-methoxy-benzoyl)-1-[1,3,4]thiadiazol-2-yl-1,5-dihydro-pyrrol-2-one]",5.15
4,CC(C)c1ccc(C2C(C(=O)c3ccc(Cl)cc3)=C(O)C(=O)N2c2ncc(S(=O)(=O)c3ccc([N+](=O)[O-])cc3)s2)cc1 (stereo not drawn) [Example 32],5.70
5,"COc1ccc(C(=O)C2=C(O)C(=O)N(c3nnc(C(F)(F)F)s3)C2c2ccc(C(C)(C)C)cc2)cc1 (stereo not drawn) [Example 26, 5-(4-tert-butyl-phenyl)-3-hydroxy-4-(4-methoxy-benzoyl)-1-(5-trifluoromethyl-[1,3,4]thiadiazol-2-yl)-1,5-dihydro-pyrrol-2-one]",4.85
6,COc1ccc(C(=O)C2=C(O)C(=O)N(c3nnc(C4CCCCC4)s3)C2c2ccc(C(C)(C)C)cc2)cc1 (stereo not drawn) [Example 27],4.92
7,"Cc1ccc(C(=O)C2=C(O)C(=O)N(c3ncc(S(=O)(=O)N4CCOCC4)s3)C2c2ccc(C(C)C)cc2)cc1 (stereo not drawn) [Example 41, 3-hydroxy-5-(4-isopropyl-phenyl)-4-(4-methyl-benzoyl)-1-[5-(morpholine-4-sulfonyl)-thiazol-2-yl]-1,5-dihydro-pyrrol-2-one]",4.79
8,Cc1ccc(C2C(C(=O)c3ccc(Cl)cc3)=C(O)C(=O)N2c2ncc(S(=O)(=O)c3ccc([N+](=O)[O-])cc3)s2)cc1 (stereo not drawn) [Example 66],4.85
9,COc1ccc(C2C(C(=O)c3ccc(C)cc3)=C(O)C(=O)N2c2ncc(S(=O)(=O)c3ccc([N+](=O)[O-])cc3)s2)cc1 (stereo not drawn) [Example 53],5.22
10,Cc1ccc(C(=O)C2=C(O)C(=O)N(c3ncc(S(=O)(=O)c4ccc([N+](=O)[O-])cc4)s3)C2c2ccc(Cl)cc2)cc1 (stereo not drawn) [Example 60],4.89
11,"CC(C)c1ccc(C2C(Cc3ccccc3)=C(O)C(=O)N2c2ncc(S(=O)(=O)c3ccc([N+](=O)[O-])cc3)s2)cc1 (stereo not drawn) [Example 36, 4-benzyl-3-hydroxy-5-(4-isopropyl-phenyl)-1-[5-(4-nitro-benzenesulfonyl)-thiazol-2-yl]-1,5-dihydro-pyrrol-2-one]",5.30
12,"CC(C)c1ccc(C2C(C(=O)c3ccc(C(C)(C)C)cc3)=C(O)C(=O)N2c2ncc(S(=O)(=O)c3ccc([N+](=O)[O-])cc3)s2)cc1 (stereo not drawn) [Example 9, 4-(4-tert-butyl-benzoyl)-3-hydroxy-5-(4-isopropyl-phenyl)-1-[5-(4-nitro-benzenesulfonyl)-thiazol-2-yl]-1,5-dihydro-pyrrol-2-one]",5.40
13,"CC(C)c1ccc(C2C(C(=O)Cc3ccccc3)=C(O)C(=O)N2c2ncc(S(=O)(=O)c3ccc([N+](=O)[O-])cc3)s2)cc1 (stereo not drawn) [Example 11, 3-hydroxy-5-(4-isopropyl-phenyl)-1-[5-(4-nitro-benzenesulfonyl)-thiazol-2-yl]-4-phenylacetyl-1,5-dihydro-pyrrol-2-one]",4.92
14,O=C(C1=C(O)C(=O)N(c2ncc(S(=O)(=O)c3ccc([N+](=O)[O-])cc3)s2)C1c1cccc(Cl)c1)c1ccc(Cl)cc1 (stereo not drawn) [Example 59],4.85
15,COc1ccc(C2C(C(=O)c3ccc(Cl)cc3)=C(O)C(=O)N2c2ncc(S(=O)(=O)c3ccc([N+](=O)[O-])cc3)s2)cc1 (stereo not drawn) [Example 52],5.22
16,"CC(C)(C)c1ccc(C2C(C(=O)c3nccs3)=C(O)C(=O)N2c2ncc(S(=O)(=O)c3ccc([N+](=O)[O-])cc3)s2)cc1 (stereo not drawn) [Example 56, 5-(4-tert-butyl-phenyl)-3-hydroxy-1-[5-(4-nitro-benzenesulfonyl)-thiazol-2-yl]-4-(thiazol-2-carbonyl)-1,5-dihydro-pyrrol-2-one]",> 5.00
17,Cc1ccc(C(=O)C2=C(O)C(=O)N(c3ncc(S(=O)(=O)c4ccc([N+](=O)[O-])cc4)s3)C2c2ccc(C)cc2)cc1 (stereo not drawn) [Example 124],5.15
18,"CC(C)c1ccc(C2C(C(=O)c3ccc(OC(F)(F)F)cc3)=C(O)C(=O)N2c2ncc(S(=O)(=O)c3ccc([N+](=O)[O-])cc3)s2)cc1 (stereo not drawn) [Example 13, 3-hydroxy-5-(4-isopropyl-phenyl)-1-[5-(4-nitro-benzenesulfonyl)-thiazol-2-yl]-4-(4-trifluoromethoxy-benzoyl)-1,5-dihydro-pyrrol-2-one]",5.70
19,"COc1ccc(C(=O)C2=C(O)C(=O)N(c3nnc(-c4ccccc4)s3)C2c2ccc(C(C)(C)C)cc2)cc1 (stereo not drawn) [Example 30, 5-(4-tert-butyl-phenyl)-3-hydroxy-4-(4-methoxy-benzoyl)-1-(5-phenyl-[1,3,4]thiadiazol-2-yl)-1,5-dihydro-pyrrol-2-one]",5.22
20,O=C(C1=C(O)C(=O)N(c2ncc(S(=O)(=O)c3ccc([N+](=O)[O-])cc3)s2)C1c1cccc(Br)c1)c1ccc(Cl)cc1 (stereo not drawn) [Example 57],5.40

# Test system: not given
# Test: not given
row,melting point,SMILES
1,308 to 309 °C,Cc1ccc(C(=O)C2=C(O)C(=O)N(c3ncc(S(=O)(=O)c4ccc([N+](=O)[O-])cc4)s3)C2c2ccc(C(=O)O)cc2)cc1 (stereo not drawn)
2,235 to 237 °C,COC1=C(C(=O)c2ccc(OC)cc2)C(c2ccc(C(C)(C)C)cc2)N(c2nnc(C)s2)C1=O (stereo not drawn)
3,237 °C,COC1=C(C(=O)c2ccc(C)cc2)C(c2ccc(C(C)C)cc2)N(c2ncc(S(=O)(=O)c3ccc([N+](=O)[O-])cc3)s2)C1=O (stereo not drawn)
4,218 °C,COC(=O)c1cccc(C2C(C(=O)c3ccc(OC)cc3)=C(O)C(=O)N2c2nnc(C)s2)c1 (stereo not drawn)
5,255 to 257 °C,COC(=O)c1ccc(C2C(C(=O)c3ccc(OC)cc3)=C(O)C(=O)N2c2nnc(C)s2)cc1 (stereo not drawn)
6,195 to 197 °C,CNC(=O)c1ccc(C2C(C(=O)c3ccc(C)cc3)=C(O)C(=O)N2c2ncc(S(=O)(=O)c3ccc([N+](=O)[O-])cc3)s2)cc1 (stereo not drawn) (as salt: hydrochloride)
7,281 °C,COc1ccc(C(=O)C2=C(O)C(=O)N(c3nnc(C)s3)C2c2ccc(C(=O)O)cc2)cc1 (stereo not drawn)
8,281 °C,COc1ccc(C(=O)C2=C(O)C(=O)N(c3nnc(C)s3)C2c2cccc(C(=O)O)c2)cc1 (stereo not drawn)
9,172 °C,CC(C)(C)c1ccc(C2C(C(=O)CCc3ccccc3)=C(O)C(=O)N2c2ncc(S(=O)(=O)c3ccc([N+](=O)[O-])cc3)s2)cc1 (stereo not drawn)
10,185 °C,COc1ccc(C(=O)C2=C(O)C(=O)N(c3nnc(C)s3)C2c2ccc(C#N)cc2)cc1 (stereo not drawn)
11,211 °C,Cc1ccc(C(=O)C2=C(O)C(=O)N(c3ncc(S(=O)(=O)c4ccc([N+](=O)[O-])cc4)s3)C2c2cccnc2)cc1 (stereo not drawn)
12,251 °C,COc1ccc(C(=O)C2=C(O)C(=O)N(c3nnc(C)s3)C2c2ccc(O)cc2)cc1 (stereo not drawn)
13,205 °C,Cc1ccc(C(=O)C2=C(O)C(=O)N(c3ncc(S(=O)(=O)c4ccc([N+](=O)[O-])cc4)s3)C2c2ccc(C(=O)N(C)C)cc2)cc1 (stereo not drawn) (as salt: hydrochloride)
14,269 to 271 °C,Cc1ccc(C(=O)C2=C(O)C(=O)N(c3ncc(S(C)(=O)=O)s3)C2c2ccc(C(C)C)cc2)cc1 (stereo not drawn)
15,238 °C,CNC(=O)c1cccc(C2C(C(=O)c3ccc(OC)cc3)=C(O)C(=O)N2c2nnc(C)s2)c1 (stereo not drawn) (as salt: hydrochloride)

row,SMILES,melting point
1,"CON=C(C1=C(O)C(=O)N(c2ncc(S(=O)(=O)c3ccc([N+](=O)[O-])cc3)s2)C1c1ccc(C(C)C)cc1)c1ccc(C)cc1 (mixture of isomers) [Example 49, 3-hydroxy-5-(4-isopropyl-phenyl)-4-{[methoxyimino]-p-tolyl-methyl}-1-[5-(4-nitro-benzenesulfonyl)-thiazol-2-yl]-1,5-dihydro-pyrrol-2-one]",156 °C
2,"COc1ccc(C(=O)C2=C(O)C(=O)N(c3nncs3)C2c2ccc(C(C)(C)C)cc2)cc1 (stereo not drawn) [Example 18, 5-(4-tert-butyl-phenyl)-3-hydroxy-4-(4-methoxy-benzoyl)-1-[1,3,4]thiadiazol-2-yl-1,5-dihydro-pyrrol-2-one]",289 to 291 °C
3,"COc1ccc(C(=O)C2=C(O)C(=O)N(c3nnc(C(F)(F)F)s3)C2c2ccc(C(C)(C)C)cc2)cc1 (stereo not drawn) [Example 26, 5-(4-tert-butyl-phenyl)-3-hydroxy-4-(4-methoxy-benzoyl)-1-(5-trifluoromethyl-[1,3,4]thiadiazol-2-yl)-1,5-dihydro-pyrrol-2-one]",271 °C
4,"Cc1ccc(C(=O)C2=C(O)C(=O)N(c3ncc(S(=O)(=O)N4CCOCC4)s3)C2c2ccc(C(C)C)cc2)cc1 (stereo not drawn) [Example 41, 3-hydroxy-5-(4-isopropyl-phenyl)-4-(4-methyl-benzoyl)-1-[5-(morpholine-4-sulfonyl)-thiazol-2-yl]-1,5-dihydro-pyrrol-2-one]",247 to 252 °C
